Experimental findings from patent US12209074B2, “SHP2 phosphatase allosteric inhibitor” (BEIJING SHENOGEN PHARMA GROUP LTD., priority 2019, dated 2025) are described below.

Bounds are passed on as bounds.

The test concerns Human non-small cell lung cancer NCI-H358. The test is described as follows: Cell proliferation assay (CellTiter-Glu) in NCI-H358. The test is classed as cell-based. Particulars: 5 days, NCI-H358 cells, cell viability by CellTiter-Glu, compound 0.3 nM-2 μM, medium and compound renewed after 3 days. How it is done: Cell proliferation inhibition screening method was established by CellTier-Glu® test reagent from Promega.
Human non-small cell lung cancer NCI-H358 was cultured by RPMI-1640 (Gibco®) medium with 10% fetal bovine serum (Gibco®) at 37° C., 95% air and 5% CO2, in 25 cm^2 or 75 cm^2 plastic culture bottle ((Nunc®) and passaged 2-3 times a week.
The cells were seeded on the 96 well cell culture plate (Nunc®) at the density of 2*10^3/well, 90 μL/well, and cultured at 37° C., 95% air and 5% CO2. The compound to be tested was added 24 hours later: the compound was diluted 3 times with DMSO from the concentration of 2 mM compound (dissolved in DMSO). […] 10 μL of the compound diluted by culture medium was added into the culture plate seeded with cells. The final concentration of DMSO in cell culture medium was 0.1%, and the final concentration of test compound was 0.3 nM-2 μM. The cells were incubated at 37° C. for 3 days. The culture medium was substituted with 90 μL/well fresh complete medium. According to the above diluting method of compounds, the compound to be tested was added.
After 5 days, cell viability was tested by CellTiter-Glu (Promega) kit, and finally, the semi-inhibitory concentration of compounds on cell proliferation, i.e. IC50 was calculated by Prism program.

Consider `Cc1nc(N2CCC3(CC2)Cc2ccc(NS(C)(=O)=O)cc2[C@H]3N)c(CO)nc1-c1cccc(Cl)c1Cl` [Compound 3, (S)—N-(1-amino-1′-(5-(2,3-dichlorophenyl)-3-(hydroxymethyl)-6-methylpyrazin-2-yl)-1,3-dihydrospiro[indene-2,4′-piperidin]-6-yl) methanesulfonamide], for which the IC50 (usually the midpoint of a concentration-inhibition curve) was 273 nM.

As for `Cc1nc(N2CCC3(CC2)Cc2ccc(C(C)(C)O)cc2[C@H]3N)c(CO)nc1-c1cccc(Cl)c1Cl` [Compound 4, (S)-2-(1-amino-1′-(5-(2,3-dichlorophenyl)-3-(hydroxymethyl)-6-methylpyrazin-2-yl)-1,3-dihydrospiro[indene-2,4′-piperidin]-6-yl)propan-2-01], half-maximal inhibition (IC50) was put at 817 nM.

As to `Cc1nc(N2CCC3(CC2)Cc2ccc(C(N)=O)cc2[C@H]3N)c(CO)nc1-c1cccc(Cl)c1Cl` [Compound 5, (S)-1-amino-1′-(5-(2,3-dichlorophenyl)-3-(hydroxymethyl)-6-methylpyrazin-2-yl)-1,3-dihydrospiro[indene-2,4′-piperidine]-6-carboxamide], half-maximal inhibition (IC50) required 98 nM.

`Cc1nc(N2CCC3(CC2)Cc2ccccc2[C@H]3N)c(C(N)=O)nc1-c1cccc(Cl)c1Cl` [Compound 6, (S)-3-(1-amino-1,3-dihydrospiro[indene-2,4′-piperidin]-1′-yl)-6-(2,3-dichlorophenyl)-5-methylpyrazine-2-carboxamide] displayed an IC50 of more than 1000 nM.

For the molecule `Cc1nc(N2CCC3(CC2)Cc2ccccc2[C@H]3N)c(C#N)nc1-c1cccc(Cl)c1Cl` [Compound 7, (S)-3-(1-amino-1,3-dihydrospiro[indene-2,4′-piperidin]-1′-yl)-6-(2,3-dichlorophenyl)-5-methylpyrazine-2-carbonitrile], the IC50 is more than 1000 nM.

On to `Cc1nc(N2CCC3(CC2)Cc2cccc(C#N)c2[C@H]3N)c(CO)nc1-c1cccc(Cl)c1Cl` [Compound 8, (S)-1-amino-1′-(5-(2,3-dichlorophenyl)-3-(hydroxymethyl)-6-methylpyrazin-2-yl)-1,3-dihydrospiro[indene-2,4′-piperidine]-7-carbonitrile], for which the IC50 is more than 1000 nM.

With `Cc1nc(N2CCC3(CC2)Cc2cc(NS(C)(=O)=O)ccc2[C@H]3N)c(CO)nc1-c1cccc(Cl)c1Cl` [Compound 9, (S)—N-(1-amino-1′-(5-(2,3-dichlorophenyl)-3-(hydroxymethyl)-6-methylpyrazin-2-yl)-1,3-dihydrospiro[indene-2,4′-piperidin]-5-yl)methanesulfonamide], the IC50 is more than 1000 nM.

Molecule `Cc1nc(N2CCC3(CC2)Cc2ccccc2[C@H]3N)c(CO)nc1-c1ccnc(N)c1Cl` [Compound 10, (S)-(3-(1-amino-1,3-dihydrospiro[indene-2,4′-piperidin]-1′-yl)-6-(2-amino-3-chloropyridin-4-yl)-5-methylpyrazin-2-yl)methanol] had an IC50 of more than 1000 nM.

Molecule `N[C@@H]1c2ccccc2CC12CCN(c1ncc(-c3cccc(Cl)c3Cl)nc1CO)CC2` [Compound 11, (S)-(3-(1-amino-1,3-dihydrospiro[indene-2,4′-piperidin]-1′-yl)-6-(2,3-dichlorophenyl)pyrazin-2-yl)methanol] showed an IC50 of 405 nM.

Regarding `Cc1nc(N2CCC3(CC2)Cc2ccccc2[C@H]3N)c(CO)nc1-c1cccnc1C(F)(F)F` [Compound 12, (S)-(3-(1-amino-1,3-dihydrospiro[indene-2,4′-piperidin]-1′-yl)-5-methyl-6-(2-(trifluoromethyl)pyridin-3-yl)pyrazin-2-yl)methanol], the IC50 is more than 1000 nM.

As to `COc1ccc2c(c1)[C@@H](N)C1(CCN(c3nc(C)c(-c4cccc(Cl)c4Cl)nc3CO)CC1)C2` [Compound 14], the IC50 stood at 56 nM.

Molecule `Cc1cccc(-c2nc(CO)c(N3CCC4(CC3)Cc3ccccc3[C@H]4N)nc2C)c1C` [Compound 15] displayed a 50% inhibitory concentration (IC50) of 590 nM.

Molecule `Cc1nc(N2CCC3(CC2)Cc2ccccc2[C@H]3N)c(CO)nc1-c1ccccc1Br` [Compound 16] showed an IC50 of 261 nM.

For the molecule `Cc1nc(N2CCC3(CC2)Cc2ccccc2[C@H]3N)c(CO)nc1-c1ccc2[nH]ncc2c1` [Compound 17], it took 464 nM to reach half-maximal inhibition (IC50).

Take `Cc1nc(N2CCC3(CC2)Cc2ccccc2[C@H]3N)c(CO)nc1-c1ccc2c(cnn2C)c1` [Compound 18]: inhibition was half-maximal at 630 nM (IC50).

`Cc1nc(N2CCC3(CC2)Cc2ccccc2[C@H]3N)c(CO)nc1-c1ccnc(Cl)c1Cl` [Compound 19] came in with an IC50 of 29 nM.

Molecule `Cc1ccc2c(c1)[C@@H](N)C1(CCN(c3nc(C)c(-c4cccc(Cl)c4Cl)nc3CO)CC1)C2` [Compound 20] gave an IC50 of 48 nM.

For `Cc1nc(N2CCC3(CC2)Cc2ccccc2[C@H]3N)c(CO)nc1-c1ccc(Cl)c(Cl)c1` [Compound 22], 195 nM corresponded to half-maximal inhibition (IC50).

Molecule `Cc1nc(N2CCC3(CC2)Cc2ccccc2[C@H]3N)c(CO)nc1-c1ccccc1Cl` [Compound 23] came in with a half-maximal inhibitory concentration (IC50) of 479 nM.

Regarding `Cc1nc(N2CCC3(CC2)Cc2ccccc2[C@@H]3N)c(CO)nc1-c1cccc(Cl)c1Cl` [Compound 24], the IC50 was more than 1000 nM.

For the molecule `Cc1cccc(-c2nc(CO)c(N3CCC4(CC3)Cc3ccccc3[C@H]4N)nc2C)c1Cl` [Compound 25], half-maximal inhibition (IC50) required 37 nM.

For `Cc1nc(N2CCC3(CC2)Cc2ccccc2[C@H]3N)c(CO)nc1-c1cc2ccccc2[nH]1` [Compound 26], inhibition was half-maximal at 449 nM (IC50).

In the case of `Cc1nc(N2CCC3(CC2)Cc2cc(C(N)=O)ccc2[C@H]3N)c(CO)nc1-c1cccc(Cl)c1Cl` [Compound 27], the concentration for half-maximal inhibition (IC50) was more than 1000 nM.

`Cc1nc(N2CCC3(CC2)Cc2cccc(Br)c2[C@H]3N)c(CO)nc1-c1cccc(Cl)c1Cl` [Compound 28]: the IC50 is more than 1000 nM.

Consider `Cc1nc(N2CCC3(CC2)Cc2ccc(N=S(C)(C)=O)cc2[C@H]3N)c(CO)nc1-c1cccc(Cl)c1Cl` [Compound 29], for which the IC50 worked out at 199 nM.

The molecule `Cc1nc(N2CCC3(CC2)Cc2c(C#N)cccc2[C@H]3N)c(CO)nc1-c1cccc(Cl)c1Cl` [Compound 30] yielded an IC50 of 207 nM.

Molecule `Cc1nc(N2CCC3(CC2)Cc2ccc(S(C)(=O)=O)cc2[C@H]3N)c(CO)nc1-c1cccc(Cl)c1Cl` [Compound 31] yielded an IC50 of 249 nM.

Take `Cc1nc(N2CCC3(CC2)Cc2ccc(Br)cc2[C@H]3N)c(CO)nc1-c1cccc(Cl)c1Cl` [Compound 32]: 29 nM corresponded to half-maximal inhibition (IC50).

On to `Cc1nc(N2CCC3(CC2)Cc2ccc(Cl)cc2[C@H]3N)c(CO)nc1-c1cccc(Cl)c1Cl` [Compound 33], for which the IC50 was 17 nM.

Regarding `Cc1nc(N2CCC3(CC2)Cc2ccc(C(F)(F)F)cc2[C@H]3N)c(CO)nc1-c1cccc(Cl)c1Cl` [Compound 34], it took 90 nM to reach half-maximal inhibition (IC50).

As for `Cc1nc(N2CCC3(CC2)Cc2cccnc2[C@H]3N)c(CO)nc1-c1cccc(Cl)c1Cl` [Compound 35], half-maximal inhibition (IC50) was put at 101 nM.

The molecule `Cc1nc(N2CCC3(CC2)Cc2ccc(OC(F)(F)F)cc2[C@H]3N)c(CO)nc1-c1cccc(Cl)c1Cl` [Compound 36] had an IC50 of 31 nM.

For `Cc1nc(N2CCC3(CC2)Cc2ccncc2[C@H]3N)c(CO)nc1-c1cccc(Cl)c1Cl` [Compound 37], the IC50 came to 75 nM.

In turn, `Cc1nc(N2CCC3(CC2)Cc2cnccc2[C@H]3N)c(CO)nc1-c1cccc(Cl)c1Cl` [Compound 38] gave an IC50 of more than 1000 nM.

The molecule `Cc1cnc2c(c1)[C@@H](N)C1(CCN(c3nc(C)c(-c4cccc(Cl)c4Cl)nc3CO)CC1)C2` [Compound 39] showed an IC50 of 11 nM.

As to `Cc1nc(N2CCC3(CC2)Cc2ncccc2[C@H]3N)c(CO)nc1-c1ccnc(Cl)c1Cl` [Compound 40], the 50% inhibitory concentration (IC50) amounted to 30 nM.

In turn, `COc1ccc(-c2nc(CO)c(N3CCC4(CC3)Cc3ccccc3[C@H]4N)nc2C)c(Cl)c1` [Compound 41] yielded a half-maximal inhibitory concentration (IC50) of 97 nM.

`Cc1nc(N2CCC3(CC2)Cc2ccccc2[C@H]3N)c(CO)nc1-c1ccc(S(C)(=O)=O)cc1Cl` [Compound 42] showed an IC50 of 732 nM.

In the case of `Cc1nc(N2CCC3(CC2)Cc2ccccc2[C@H]3N)c(CO)nc1-c1cncc(Cl)c1Cl` [Compound 43], 225 nM corresponded to half-maximal inhibition (IC50).

`Cc1nc(N2CCC3(CC2)Cc2ccccc2[C@H]3N)c(CO)nc1-c1cncc(Cl)c1` [Compound 44] yielded an IC50 of more than 1000 nM.

On to `Cc1nc(N2CCC3(CC2)Cc2ccccc2[C@H]3N)c(CO)nc1-c1cnc(N)cc1Cl` [Compound 45], for which the IC50 was more than 1000 nM.

The molecule `COc1ccc(-c2nc(CO)c(N3CCC4(CC3)Cc3ncccc3[C@H]4N)nc2C)c(Cl)c1` [Compound 46] came in with an IC50 of 379 nM.

In turn, `Cc1ccc2c(c1)[C@H](N)C1(CCN(c3nc(C)c(-c4ccnc(Cl)c4Cl)nc3CO)CC1)C2` [Compound 48] displayed an IC50 of more than 1000 nM.

Consider `Cc1cnc2c(c1)[C@H](N)C1(CCN(c3nc(C)c(-c4ccnc(Cl)c4Cl)nc3CO)CC1)C2` [Compound 50], for which the midpoint of inhibition, the IC50, lay at 453 nM.

On to `Cc1cnc2c(c1)[C@@H](N)C1(CCN(c3nc(C)c(-c4ccncc4Cl)nc3CO)CC1)C2` [Compound 51], for which the IC50 stood at 81 nM.

In turn, `Cc1cnc2c(c1)[C@H](N)C1(CCN(c3nc(C)c(-c4ccncc4Cl)nc3CO)CC1)C2` [Compound 52] showed an IC50 of more than 1000 nM.

`COc1ccc(-c2nc(CO)c(N3CCC4(CC3)Cc3ccccc3[C@H]4N)nc2C)c(Cl)c1Cl` [Compound 53] came in with an IC50 of 328 nM.

In turn, `Cc1nc(N2CCC3(CC2)Cc2ccccc2[C@H]3N)c(CO)nc1-c1cc(N)nc(C)c1Cl` [Compound 54] yielded an IC50 of 83 nM.
